From patent US4413007A, “Pesticidal symmetrical N-substituted bis-carbamoyloximino disulfide compounds” (priority 1978, dated 1983)

What was measured:
Assay type in all cases: in vivo
[1] = test system: two-spotted mite (Tetranychus urticae Koch); assay: Mite Foliage Spray Test; parameters: key: A: excellent control; B: partial control; C: no control; details: 500 ppm, six days
Procedure: (§1) Suspensions of the test compounds were prepared by dissolving one gram of compound in 50 milliliters of acetone in which had been dissolved 0.1 gram (10 percent of the weight of compound) of an alkylphenoxy polyethoxyethanol surfactant, as an emulsifying or dispersing agent. The resulting solution was mixed into 150 milliliters of water to give roughly 200 milliliters of a suspension containing the compound in finely divided form. The thus-prepared stock suspension contained 0.5 percent by weight of compound. The test concentrations in parts per million by weight employed in the tests described hereinbelow were obtained by appropriate dilutions of the stock suspension with water. The test procedures were as follows:
Adults and nymphal stages of the two-spotted mite (Tetranychus urticae Koch), reared on Tendergreen bean plants at 80±5 percent relative humidity, were the test organisms. Infested leaves from a stock culture were placed on the primary leaves of two bean plants six to eight inches in height, growing in a two-and-a-half inch clay pot. 150-200 Mites, a sufficient number for testing, transferred from the excised leaves to the fresh plants in a period of twenty four hours. Following the twenty four hour transfer period, the excised leaves were removed from the infested plants. The test compounds were formulated by diluting the stock suspension with water to give a suspension containing 500 parts of test compound per million parts of final formulation. The potted plants (one pot per compound) were placed on a revolving turntable and sprayed with 100-110 milliliters of test compound formulation by use of a DeVilbiss spray gun set at 40 psig. air pressure. This application, which lasted 25 seconds, was sufficient to wet the plants to run-off. As a control, 100-110 milliliters of a water solution containing acetone and emulsifier in the same concentrations as the test compound formulation, but containing no test compound, were also sprayed on infested plants. The sprayed plants were held at 80±5 percent relative humidity for six days, after which a mortality count of motile forms was made. Microscopic examination for motile forms was made on the leaves of the test plants. Any individual which was capable of locomotion upon prodding was considered living.
(§2) In these tests the pesticidal activity of the compounds against aphid, mite, Southern Armyworm, Bean Beetle and house fly was rated as follows: […]

[2] = test system: southern armyworm (Prodenia eridania, (Cram.)); assay: Southern Armyworm Leaf Spray Test; parameters: key: A: excellent control; B: partial control; C: no control; details: 500 ppm, three days
Procedure: as §1
Larvae of the southern armyworm (Prodenia eridania, (Cram.)), reared on Tendergreen bean plants at a temperature of 80±5° F. and a relative humidity of 50±5 percent, constituted the test insects.
The test compounds were formulated by diluting the stock suspension with water to give a suspension containing 500 parts of test compound per million parts of final formulation. Potted Tendergreen bean plants of standard height and age were placed on a revolving turntable and sprayed with 100-110 milliliters of test compound formulation by use of a DeVilbiss spray gun set at 10 psig air pressure. This application, which tested 25 seconds, was sufficient to wet plants to run-off. As a control, 100-110 milliliters of a water-acetone-emulsifier solution containing no test compound were also sprayed on infested plants. When dry, the paired leaves were separated and each one was placed in a 9 centimeter Petri dish lined with moistened filter paper. Five randomly selected larvae were introduced into each dish and the dishes were closed. The closed dishes were labeled and held at 80°-85° F. for three days. Although the larvae could easily consume the whole leaf within twenty-four hours, no more food was added. Larvae which were unable to move the length of the body, even upon stimulation by prodding, were considered dead. Percent mortality was recorded for various concentration levels.
as §2

[3] = test system: root-knot nematode (Meloidogyne incognita var. acrita); assay: Nematode Test; parameters: key: 1: severe galling; equal to untreated control; 2: moderate galling; 3: light galling; 4: very light galling; 5: no galling; details: 10 ml of 500 ppm formulation per jar (approx. 180 cc soil), cucumber indicator crop, approx. three weeks
Procedure: as §1
Infective migratory larvae of the root-knot nematode, (Meloidogyne incognita var. acrita) were reared in the greenhouse on roots of Rutgers variety tomato plant. Infected tomato plants were removed from the culture and the roots were chopped very finely. A small amount of inoculum from the roots was added to pint Mason jars containing approximately 180 cc of soil. The jars containing the inoculum and soil were capped and incubated for one week at room temperature. During this period eggs of the nematode hatched and the larvae forms migrated into the soil.
The test compounds were formulated by diluting the stock suspension with water to give a suspension containing 500 parts of test compound per million parts of final formulation. 10 milliliters of the test formulation was added to each of two jars for each dosage treated. As a control 10 milliliters of a water-acetone-emulsifier solution containing no test compound was also added to jars containing nematode larvae. The jars were capped and the contents thoroughly mixed on a kale mill for five minutes. The jars remained capped at room temperature for a period of 48 hours and the contents were then transferred to 3 inch pots. Subsequently, the pots were seeded to cucumber as an indicator crop and placed in the green house where they were cared for in the normal fashion for growing potted cucumber for approximately three weeks. These cucumber plants were then removed from the pots, the soil washed from the roots and the amount of galling visually rated.
The nematocidal toxicity has the following ratings;

[4] = test system: bean aphid (Aphis fabae Scop.); assay: Bean Aphid Foliage Spray Test; parameters: key: A: excellent control; B: partial control; C: no control; details: 500 ppm, 24 hour holding period
Procedure: as §1
Adults and nymphal stages of the bean aphid (Aphis fabae Scop.) reared on potted dwarf nasturtium plants at 65°-70° F. and 50-70 percent relative humidity, constituted the test insects. For testing purposes, the number of aphids per pot was standardized to 100-150 by trimming plants containing excess aphids.
The test compounds were formulated by diluting the stock suspension with water to give a suspension containing 500 parts of test compound per million parts of final formulation.
The potted plants (one pot per compound tested) infested with 100-150 aphids, were placed on a revolving turntable and sprayed with 100-110 milliliters of test compound formulation by use of a DeVilbiss spray gun set at 40 psig. air pressure. This application, which tested 25 seconds, was sufficient to wet the plants to run-off. As a control, 100-110 milliliters of a water-acetone-emulsifier solution containing no test compound were also sprayed on infested plants. After spraying, the pots were placed on their sides on a sheet of white standard mimeograph paper which had been previously ruled to facilitate counting. Temperature and humidity in the test room during the 24 hour holding period were 65°-70° F. and 50-70 percent, respectively. Aphids which fell onto the paper and were unable to remain standing after being uprighted were considered dead. Aphids remaining on the plants were observed closely for movement and those which were unable to move the length of the body upon stimulation by prodding were considered dead. Percent mortality was recorded for various concentration levels.
as §2

SMILES: CC(=NOC(=O)N(C)SSN(C)C(=O)ON=C(C)SCCC#N)SCCC#N [N,N'-Bis-[1-(2-Cyanoethylthio)acetaldehyde O-(N-methylcarbamoyl)oxime]disulfide]
- 2-Spotted Mite control rating [1]: A
- Southern Armyworm control rating [2]: A
- Root-Knot Nematode galling rating [3]: 4
- Bean Aphid control rating [4]: A

SMILES: CN(SSN(C)C(=O)ON=C1CSCCS1)C(=O)ON=C1CSCCS1 [N,N'-Bis-[1,4-Dithiane-2-O-(N-methylcarbamoyl)oximino]disulfide]
- 2-Spotted Mite control rating [1]: A
- Southern Armyworm control rating [2]: A
- Root-Knot Nematode galling rating [3]: 1
- Bean Aphid control rating [4]: A

SMILES: CSC(C)=NOC(=O)N(C)SSN(C)C(=O)ON=C(C)SC [N,N'-Bis-[1-Methylthioacetaldehyde O-(N-methylcarbamoyl)oxime]disulfide]
- 2-Spotted Mite control rating [1]: C
- Southern Armyworm control rating [2]: A
- Root-Knot Nematode galling rating [3]: 1
- Bean Aphid control rating [4]: A
